Assay results reported in PubChem BioAssay (NCI).
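Method: 48-hour compound exposure of cells in 96-well plates, five concentrations, linear interpolation of endpoints. Abbreviation: GI50, concentration required for 50% inhibition of growth. TGI is the concentration that stops growth completely.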

Experiments:
Test in all cases: NCI tumour cell line growth inhibition, 48 h
EKVX NSCLC = system: EKVX NSCLC
OVCAR-4 ovarian = system: OVCAR-4 ovarian
RPMI-8226 leukemia = system: RPMI-8226 leukemia
M14 melanoma = system: M14 melanoma
OVCAR-3 ovarian = system: OVCAR-3 ovarian
HCC-2998 colon = system: HCC-2998 colon
SK-MEL-28 melanoma = system: SK-MEL-28 melanoma
BT-549 breast = system: BT-549 breast
MDA-MB-435 = system: MDA-MB-435
A498 renal = system: A498 renal

Row | SMILES | TGI (EKVX NSCLC) [µM] | TGI (OVCAR-4 ovarian) [µM] | TGI (RPMI-8226 leukemia) [µM] | TGI (M14 melanoma) [µM] | TGI (OVCAR-3 ovarian) [µM] | TGI (HCC-2998 colon) [µM] | TGI (SK-MEL-28 melanoma) [µM] | GI50 (EKVX NSCLC) [µM] | GI50 (BT-549 breast) [µM] | TGI (BT-549 breast) [µM] | GI50 (RPMI-8226 leukemia) [µM] | GI50 (M14 melanoma) [µM] | GI50 (OVCAR-3 ovarian) [µM] | GI50 (MDA-MB-435) [µM] | TGI (MDA-MB-435) [µM] | GI50 (HCC-2998 colon) [µM] | GI50 (SK-MEL-28 melanoma) [µM] | GI50 (OVCAR-4 ovarian) [µM] | GI50 (A498 renal) [µM] | TGI (A498 renal) [µM]
1 | O=c1c2cc3c(cc2c2cccc4c2n1CCC4)OCO3 | 99.5 | > 100 | > 100 | > 100 | > 100 | > 100 | > 100 |  |  |  |  |  |  |  |  |  |  |  |  | 
2 | COc1ccc(-c2csc(NC(=O)CN3CCN(c4cc5c(cc4F)c(=O)c(C(=O)O)cn5C4CC4)CC3)n2)cc1 | > 100 |  | > 100 | > 100 | > 100 | > 100 | > 100 | 4.39 | 3.03 | > 100 | 2.69 | 4.1 | 3.86 | 3.39 | > 100 | 4.8 | 3.72 |  |  | 
3 | Cl.Fc1c[c-]c(-c2ccccn2)c(F)c1.[Pt].c1ccc([PH+](C[PH+](c2ccccc2)c2ccccc2)c2ccccc2)cc1 | 1.05 | 0.927 | 0.544 | 1.02 | 0.442 |  | 0.706 | 0.261 |  |  | 0.161 | 0.314 | 0.184 | 0.233 | 0.574 |  | 0.231 | 0.267 | 0.239 | 0.721
4 | CC(C)(C)N/N=C(\C(=O)NC1=C(Cl)C(=O)c2ccccc2C1=O)C1C=CCS1(=O)=O (stereo not drawn) | 30.2 | 30.7 | > 100 | 23.7 | 9.38 | 57.3 | > 100 |  |  | 25.1 |  |  |  |  |  |  |  |  |  | 36.7
5 | CCCCOC1OC(COC(=O)C(C)C)C(OC(=O)C(C)C)C(O)C1OC1OC(C)C(OC(=O)CCC)C(OC(=O)C(C)C)C1O (stereo not drawn) | 25.2 | 30.4 | 8.95 |  | 24.2 |  | 30 | 12.5 | 22.1 | 37.7 | 2.27 |  | 11.9 | 14.5 | 27.6 |  | 16.2 | 15.1 |  | 
6 | Cc1ccc(NC(=O)CCc2n[nH]c(=S)o2)cc1 | > 100 | > 100 |  | > 100 | > 100 | > 100 | > 100 |  |  |  |  |  |  |  |  |  |  |  |  | > 100
7 | N#CC1=C(O)NC(O)=C(C#N)C1c1ccc(C2C(C#N)=C(O)NC(O)=C2C#N)cc1 | > 100 | > 100 | > 100 | > 100 | > 100 | > 100 | > 100 |  |  |  |  |  |  |  |  |  |  |  |  | > 100
8 | CCN1C(=NCCO)NS(=O)(=O)c2ccccc21 | > 100 | > 100 |  | > 100 | > 100 | > 100 | > 100 |  |  | > 100 |  |  |  |  | > 100 |  |  |  |  | > 100
9 | c1ccc(OCc2nnc3n2N=C(c2ccccc2)CS3)cc1 |  | > 100 | > 100 | > 100 | > 100 | > 100 | > 100 |  |  |  |  |  |  |  |  |  |  |  |  | > 100
10 | O=c1[nH]cnc2c(COCCO)c[nH]c12 | > 100 | > 100 | > 100 | > 100 | > 100 |  | > 100 |  |  |  |  |  |  |  |  |  |  |  |  | > 100
11 | CCOc1ccc2c(c1)c(CC(=O)O)cn2C | > 100 |  | > 100 | > 100 | > 100 | > 100 | > 100 |  |  | > 100 |  |  |  |  | > 100 |  |  |  |  | 
12 | OCCN(CCO)c1cccc(N(CCO)CCO)n1 | > 100 | > 100 | > 100 | > 100 | > 100 |  | > 100 |  |  |  |  |  |  |  |  |  |  |  |  | > 100
13 | Cc1ccc(-n2nnnc2-c2cnc(N3CCOCC3)nc2-c2cccc(C(F)(F)F)c2)cc1 | > 50 |  | 3.77 | 2.69 | 2.81 | 2.17 | > 50 | 3.93 | 8.3 | 31.3 | 1.28 | 1.08 | 1.05 |  |  | 0.992 | 14.4 |  | 2.71 | 17.1
14 | COc1cc(C(C)O)c[n+](CCC2CNc3ccccc32)c1 (stereo not drawn) | > 100 | > 100 | > 100 | > 100 | > 100 | > 100 |  |  |  |  |  |  |  |  |  |  |  |  |  | > 100
15 | CCn1c(CCl)nc2c1C(=O)c1ccccc1C2=O | 6.44 | 3.08 | > 100 | 3.22 | 3.05 | 2.9 | 3.19 |  |  | 4.09 |  |  |  |  | 3.12 |  |  |  |  | 
16 | COc1cccc(N2C(=O)C3C4C=C5c6ccccc6N(c6ccccc6)C5(C3C2=O)[C@H]2C(=O)N(c3cccc(OC)c3)C(=O)[C@@H]42)c1 (stereo partly drawn) | > 100 | > 100 | > 100 | > 100 | > 100 |  |  |  |  |  |  |  |  |  |  |  |  |  |  | > 100
17 | COC(=O)Cc1cc(=O)[nH]c2c1C(=O)CCC2 | > 100 |  | > 100 | > 100 | > 100 | > 100 | > 100 |  |  |  |  |  |  |  |  |  |  |  |  | 
18 | Cc1ccc(S(=O)(=O)N/N=C/C(C)C)cc1 | > 100 | > 100 | > 100 | > 100 | > 100 | > 100 |  |  |  |  |  |  |  |  |  |  |  |  |  | > 100
19 | CC(C)(C)OC(=O)NCc1cccc(N=C=S)c1 | 61 | 51.8 | 56.7 | 37 | 31.2 | 30.9 | 37.7 | 23.4 | 19.2 | 44.2 | 17.2 | 15.3 | 16.4 | 18.5 | 63.1 | 16.3 | 16.9 | 16.7 |  | 
20 | N#Cc1cccc(C=NC23CC4CC(CC(C4)C2)C3)c1 | > 100 | > 100 | > 100 | > 100 | > 100 | > 100 | > 100 |  |  |  |  |  |  |  |  |  |  |  |  | > 100
21 | COc1ccc(C(=O)C#Cc2c[nH]c(=O)[nH]c2=O)cc1 | > 54.4 | 33.1 | 41.6 | 18 | 21.6 | 36.4 | 30.1 |  |  |  |  |  |  |  |  |  |  |  |  | 49.9
22 | C=C(C(=C)P(=S)(C(C)C)C(C)C)P(=S)(C(C)C)C(C)C | > 100 | > 100 | > 100 | > 100 | > 100 | > 100 | > 100 |  |  |  |  |  |  |  |  |  |  |  |  | > 100
